{"source": "patent US20170218397A1", "about": "“C[…] GENE THERAPY VECTOR FOR […] CELL MO[…] ANTI HIV GENE THERAPY” (Texas Tech University System, priority 2014, published 2017)", "key": {"[1]": {"conditions": "herpes (CMV) treatment in HIV infected patients; cited from earlier work"}, "HIV": {"tested_on": "HIV", "assay": "Viability, HIV replication and cytopathic effect in transduced T cells infected with HIV with GCV", "assay_type": "cell-based", "description": "FIG. 10 depicts photographic images of cells in accordance with experimental embodiments."}}}
{"smiles": "Nc1nc(O)c2ncn(COC(CO)CO)c2n1", "note": "[Ganciclovir]", "values": [{"measurement": "toxicity or side effects", "setting": "[1]", "result": "without significant toxicity or side effects"}, {"measurement": "viability of transduced T cells infected with HIV", "setting": "HIV", "result": "increased viability"}, {"measurement": "HIV replication", "setting": "HIV; in the presence of GCV", "result": "diminished HIV replication"}]}
